In the supplement of paper PMC9013687:

Tested on: Danio rerio embryo
Assay: spontaneous tail coiling frequency (coils/min/embryo); higher = more spontaneous movement
Settings: 25 hpf
Method: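 Spontaneous tail coilings of zebrafish embryos exposed from 2 hpf were recorded at 24-25 hpf in 1-min videos and detected by a KNIME workflow from grey-value variance. Betamethasone was tested as the dipropionate, diflorasone as the diacetate.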

CC(=O)Nc1ccc(O)cc1 [acetaminophen]
Settings	spontaneous tail coiling frequency
230 µM	2.54
470 µM	1.5
940 µM	2.42
1875 µM	2.5
1876 µM	3.01
3750 µM	3.63
6250 µM	3.44
7500 µM	1.69
15000 µM	0
